In patent publication US20200261388A1, “USE AND METHOD OF L-ASPARTIC ACID beta-HYDROXAMATE IN PREPARING DRUGS FOR INHIBITING CHOROIDAL NEOVASCULARIZATION” (WENZHOU MEDICAL UNIVERSITY, priority 2019, published 2020):

Experiments:
[1] = system: macrophages J774A.1; experiment: Migration of macrophages J774A.1 co-cultured with TNFα-treated RPE; assay type: cell-based; settings: L-ABH 0.125 mM pre-treatment of RPE 1.5 h, then TNFα 12 h; co-culture 12 h
Procedure: (§1) Using animal models of exAMD, in C57/B6 mice, fundus was irradiated with Krypton red laser (interval at 0.05 s, duration of 0.07 s, and power at 240 mW) to make CNV mice models. A serine racemase competitive inhibitor, L-aspartic acid β-hydroxamate (L-ABH), was injected intravenously at a dosage of 6 mg/kg at the day before laser, and at a dosage of 3 mg/kg at the third day after laser. At the seventh day after laser injury, stretched preparation was performed with choroid/retinal pigment epithelial cells (RPEs), which were stained with metaagglutinin GS-IB4 coupled with Alexa Fluor 594, and the volume of CNV was analyzed. And primary RPEs were utilized in vitro to study the inhibition of L-ABH on the production of VEGF and MCP-1 by RPEs which was induced with TNFα. Macrophages were co-cultured with RPEs to study L-ABH about pre-treating RPEs and inhibiting the migration of macrophages.
The results of L-ABH inhibiting the migration of macrophages under the induction of RPE treated with TNFα are shown in FIGS. 5A-5D, in which RPE was co-cultured with macrophages J774A.1 for 12 h. […] For each culture dish, nine visual fields were randomly selected under the light microscope to be counted, with the statistical analysis seen in FIG. 5D. **p<0.01, compared with the control group, # p<0.05, compared with TNFα treatment group.

[2] = system: primary RPEs; experiment: L-serine and D-serine in supernatants of primary RPE by HPLC; assay type: cell-based; settings: L-ABH 0.0625-0.25 mM pre-treatment 1.5 h, then TNFα 500 unit/ml 12 h; supernatant
Procedure: Primary RPE was cultured in DMEM/F12 plus 20% FBS to a density of 70%, at which it was exchanged for DMEM/F12 plus 1% FBS, L-ABH (0.0625-0.25 mM), or after the control pre-treatment for 1.5 hours, it was exchanged for TNFα (500 unit/ml) to treat for 12 h, the supernatants were collected, and L-serine and D-serine in the supernatants were detected by high performance liquid chromatography. There were six samples in each group. The contents of L-serine and D-serine are shown with box charts in FIG. 4A, with **p<0.01, *p<0.05 showing that there was significant difference of D-serine between the treatment group and the control group. The ratio of L/D-serine was shown in FIG. 4B, with **p<0.01, *p<0.05 showing that there was significant difference between the control groups. In FIG. 4C-FIG. 4E, primary RPEs were co-cultured with macrophages J774A.1, primary RPEs were pretreated with L-ABH (0.125 mM) for 1.5 h, then treated with TNFα (500 unit/ml) for 12 h, with J774A.1 being cultured in the upper layer at the same time for 12 h, after which the supernatants cultured with RPEs were collected, and an enzyme-linked immunosorbent assay was used to detect the productions of MCP-1 (C), VEGF (D), and NO (E). (There were 7 samples for each group). In FIG. 4C, ***p<0.001, compared with the control group, **p<0.01, compared with TNFα treatment group. […]

[3] = system: laser-induced choroidal neovascularization; experiment: Laser-induced choroidal neovascularization (CNV) mouse model, intravenous L-ABH; assay type: in vivo, C57/B6 mice; settings: i.v. 6 mg/kg the day before laser and 3 mg/kg third day after laser; analysed day 7 after laser; p=0.001
Procedure: as §1
The results of inhibiting the laser-induced choroidal neovascularization by intravenously injecting L-ABH are shown in FIGS. 1A-1E, wherein FIG. 1A is CNV produced by laser in 2-month-old wild-type mice. Injection of saline was used as the control group (Con, B); at the day before laser, L-ABH was injected intravenously (2 mg/kg), and 1 mg/kg (C) was injected 3 days after laser; or at the day before laser, L-ABH was injected intravenously (6 mg/kg), and 3 mg/kg (D) was injected 3 days after laser. […]

[4] = system: primary RPEs induced with TNFα; experiment: Production of VEGF and MCP-1 by TNFα-induced primary RPE (ELISA, co-culture with J774A.1); assay type: cell-based; settings: L-ABH 0.125 mM pre-treatment 1.5 h, then TNFα 500 unit/ml 12 h
Procedure: as §1
Primary RPE was cultured in DMEM/F12 plus 20% FBS to a density of 70%, at which it was exchanged for DMEM/F12 plus 1% FBS, L-ABH (0.0625-0.25 mM), or after the control pre-treatment for 1.5 hours, it was exchanged for TNFα (500 unit/ml) to treat for 12 h, the supernatants were collected, and L-serine and D-serine in the supernatants were detected by high performance liquid chromatography. There were six samples in each group. […]

[5] = system: retinal functions (B-wave of rod and cone cells); experiment: Electroretinographic analysis of retinal function after intravenous L-ABH; assay type: in vivo, C57BL/6J male mice; settings: 6 mg/kg i.v., one day after injection, vs saline injection group
Procedure: The effect of intravenous injection of L-ABH on retinal functions is shown in FIGS. 2A-2D, in which C57BL/6J male mice were intravenously injected 6 mg/kg of L-ABH at an age of two months, one day after the injection, an electrographic analysis was performed on the retina. The amplitudes of B-wave in dark and bright views are shown in FIG. 2A, FIG. 2C, and FIG. 2B respectively, and the average values of which are analyzed by histograms in FIG. 2D.

[6] = system: visual functions; design: species or system C57BL/6j male mice; settings: mouse, in vivo
Procedure: The effect of intravenous injection of L-ABH on visual functions are shown in FIGS. 3A-3C, in which C57BL/6j male mice were intravenously injected 6 mg/kg of L-ABH at an age of two months, one day after the injection, visual behaviors were analyzed.

amplitude of B-wave from cone cells in a bright view [5]: no differences
amplitude of B-wave from rod cells in a dark view [5]: no differences
retention time of mice in the black box [6]: no difference
SMILES: N[C@@H](CC(=O)NO)C(=O)O [L-ABH, L-aspartic acid β-hydroxamate]
macrophage migration mediated with RPE induced with TNFα [1]: significantly inhibited macrophage migration
production of D-serine in primary RPEs [2]: decreased the production of D-serine
ratio of L-serine/D-serine [2]: increased the ratio of L-serine/D-serine
volume of CNV relative to saline control group [3]: 55%
production of MCP-1 by RPE induced with TNFα [4]: significantly decreasing the production
production of VEGF by RPE induced with TNFα [4]: significantly decreasing the production
